We go through one compound from patent US20260248791A1, “METHODS FOR TREATING DERMATOMYOSITIS WITH BREPOCITINIB” (priority 2023, published 2026).

Molecules are shown by their SMILES.

In series [1] the test system is cytokine signaling pathways that engage TYK2 and/or JAK1, including IFNα, IFNg, IL-12, and IL-23. Kind of series: Cytokine signaling in human whole blood. The class given is cell-based. The conditions noted are these: IL-12, IL-23.
The subject of series [2] is Human dermal microvascular endothelial cells (HMEC-1). In words: IFN-I induced endothelial cell damage (vascular network). The conditions noted are these: Brepocitinib preincubation. The class given is cell-based. The protocol:
Timeline for Brepocitinib efficacy evaluation for IFN-I induced pathological changes characteristic of DM in vitro. As shown in the schematic image of FIG. 1, human skeletal muscle myoblasts (HSMM) were cultured and differentiated into myotubes then treated with vehicle control or IFN-I (recombinant Human IFN alpha A and Human IFN alpha D) to induce cellular damage. Myotubes were also preincubated for 1 hour with Brepocitinib (1 μM or 130 nM, the latter is equivalent to the average free plasma concentration after administration of 30 mg once-daily) prior to IFN-I treatment. Immunofluorescence staining followed by image analysis to determine myosin 4 surface area were conducted after 48 hours of IFN-I treatment. […] Under light microscopy, 9 hours after treatment, the number of nodes, master segment length, and total mesh area were analyzed.
Human skeletal muscle myoblasts (Lonza, CC-2580) were cultured in SkGM™-2 media (Lonza, CC-3245) and sub-cultured using ReagentPack™ Subculture Reagents (Lonza, CC-5034). […] The effect on total myotube surface area was evaluated via fluorescent image analysis. […] The effect of type I IFN exposure±Brepocitinib treatment on the number of nodes, master segment length, and total mesh area was evaluated by taking bright-field images every 16 hours.

For the next series, the system named is IP-10 (CXCL10). In words: IP-10 reduction in clinical studies. The conditions noted are these: dose dependent reductions in clinical studies. The class given is in vivo, human. The source says:
As part of the clinical development program for oral Brepocitinib, a number of Phase 1 and Phase 2 studies have been completed or have a report in preparation. […] The multiple autoimmune diseases for which there is observed clinical efficacy data for Brepocitinib have mechanistic pathway similarities to DM. For example, psoriasis is driven by IL-17, which is downstream of IL-12 and IL-23 signaling via TYK2 and/or JAK1, and alopecia areata is characterized by excessive activity of IFN-γ, a type II interferon which also signals via JAK1. Of note, dose dependent reductions in IP-10 (CXCL10), an IFN-γ inducible gene, have been observed in Brepocitinib clinical studies, separating from placebo at doses ≥10 mg QD. Importantly, in these phase 2 studies, clinical response with Brepocitinib treatment rapidly separates from placebo. For example, in the phase 2 study assessing Brepocitinib's efficacy in psoriatic arthritis, Brepocitinib 30 mg achieved a 52% ACR20 response rate after 4 weeks compared to a 19% response rate in placebo patients.

The subject of series [3] is psoriatic arthritis, plaque psoriasis, ulcerative colitis, alopecia areata, and hidradenitis suppurativa. In words: 5 completed Phase 2 placebo-controlled studies. It counts as in vivo, human. The conditions noted are these: each of 5 placebo-controlled Phase 2 studies. An excerpt:
Primary efficacy endpoints with Brepocitinib. […] These clinical data, along with the overlapping pathogenic cytokine profile, support the rationale for evaluating Brepocitinib in DM.

The next series relates to transgenic (Tg) mice. In words: 6-month carcinogenicity study in Tg mice. It counts as in vivo. The conditions noted are these: 6-month Tg mouse study. An excerpt: Immunotoxicity and phototoxicity studies have also been conducted. Carcinogenicity studies in Tg mice (6 month) and rats (2 year) have been completed. […] Brepocitinib-related findings consistent with the mechanism of action (lower thymus weight and cellularity, infection) or not relevant to humans (exacerbation of chronic progressive nephropathy in the kidney) were also observed. Fertility studies in rats have been completed.

The next series concerns human PBMCs. In words: IL-12-induced IFNγ production. The class given is cell-based. An excerpt: Pharmacology. Brepocitinib inhibits various TYK2- and JAK1-dependent functions in different cell types such as cytokine-induced phosphorylation of signal transducer and activator transcriptions (STATs) in human peripheral blood mononuclear cells (PBMCs) and whole blood; differentiation of T helper (Th) 1, Th17, and B cells, interleukin (IL)-12-induced IFNγ production in human PBMCs; and IFN-1 gene signature induced by immune complexes in human PBMCs.

For series [4] the following is noted: human.
The conditions of series [5]: human, plasma, 2 μM.
For another series, the system named is CYP3A4/5. The conditions noted are these: human.
The target in series [6] is P-glycoprotein (P-gp; MDR1; ABCB1) (Homo sapiens, UniProt P08183). In words: P-glycoprotein substrate status.
Another series concerns the target P-gp (Homo sapiens, UniProt P08183). In words: In vitro transporter inhibition, P-gp.
The target of a further series is OCT2 (Homo sapiens, UniProt O15244). In words: In vitro transporter inhibition, OCT2.
The next series deals with rats. Kind of series: Chronic oral toxicology study in rats. Particulars: end of study exposure.
Series [7] has as its target multidrug and toxin extrusion (MATE) 1 (Homo sapiens, UniProt Q96FL8). Kind of series: In vitro transporter inhibition, MATE1.
Another series has as its system cynomolgus monkeys. Kind of series: Chronic oral toxicology study in monkeys. Particulars: end of study exposure.

Sequence of multidrug and toxin extrusion (MATE) 1 (Q96FL8 whole entry): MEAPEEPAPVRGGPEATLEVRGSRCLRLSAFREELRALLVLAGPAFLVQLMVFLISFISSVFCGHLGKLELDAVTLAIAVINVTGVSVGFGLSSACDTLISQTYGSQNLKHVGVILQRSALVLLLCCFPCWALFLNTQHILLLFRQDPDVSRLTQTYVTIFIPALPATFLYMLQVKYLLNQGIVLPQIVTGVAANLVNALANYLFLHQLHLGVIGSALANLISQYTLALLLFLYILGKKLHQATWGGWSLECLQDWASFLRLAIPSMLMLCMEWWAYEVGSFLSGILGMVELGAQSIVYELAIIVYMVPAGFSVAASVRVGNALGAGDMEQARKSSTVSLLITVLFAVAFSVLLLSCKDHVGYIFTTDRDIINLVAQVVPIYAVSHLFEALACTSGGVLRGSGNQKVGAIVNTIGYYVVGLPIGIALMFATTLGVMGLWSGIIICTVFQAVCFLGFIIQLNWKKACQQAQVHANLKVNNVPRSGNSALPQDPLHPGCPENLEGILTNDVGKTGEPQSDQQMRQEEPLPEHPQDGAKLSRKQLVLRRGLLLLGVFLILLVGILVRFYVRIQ
Sequence of P-gp (P08183 whole entry): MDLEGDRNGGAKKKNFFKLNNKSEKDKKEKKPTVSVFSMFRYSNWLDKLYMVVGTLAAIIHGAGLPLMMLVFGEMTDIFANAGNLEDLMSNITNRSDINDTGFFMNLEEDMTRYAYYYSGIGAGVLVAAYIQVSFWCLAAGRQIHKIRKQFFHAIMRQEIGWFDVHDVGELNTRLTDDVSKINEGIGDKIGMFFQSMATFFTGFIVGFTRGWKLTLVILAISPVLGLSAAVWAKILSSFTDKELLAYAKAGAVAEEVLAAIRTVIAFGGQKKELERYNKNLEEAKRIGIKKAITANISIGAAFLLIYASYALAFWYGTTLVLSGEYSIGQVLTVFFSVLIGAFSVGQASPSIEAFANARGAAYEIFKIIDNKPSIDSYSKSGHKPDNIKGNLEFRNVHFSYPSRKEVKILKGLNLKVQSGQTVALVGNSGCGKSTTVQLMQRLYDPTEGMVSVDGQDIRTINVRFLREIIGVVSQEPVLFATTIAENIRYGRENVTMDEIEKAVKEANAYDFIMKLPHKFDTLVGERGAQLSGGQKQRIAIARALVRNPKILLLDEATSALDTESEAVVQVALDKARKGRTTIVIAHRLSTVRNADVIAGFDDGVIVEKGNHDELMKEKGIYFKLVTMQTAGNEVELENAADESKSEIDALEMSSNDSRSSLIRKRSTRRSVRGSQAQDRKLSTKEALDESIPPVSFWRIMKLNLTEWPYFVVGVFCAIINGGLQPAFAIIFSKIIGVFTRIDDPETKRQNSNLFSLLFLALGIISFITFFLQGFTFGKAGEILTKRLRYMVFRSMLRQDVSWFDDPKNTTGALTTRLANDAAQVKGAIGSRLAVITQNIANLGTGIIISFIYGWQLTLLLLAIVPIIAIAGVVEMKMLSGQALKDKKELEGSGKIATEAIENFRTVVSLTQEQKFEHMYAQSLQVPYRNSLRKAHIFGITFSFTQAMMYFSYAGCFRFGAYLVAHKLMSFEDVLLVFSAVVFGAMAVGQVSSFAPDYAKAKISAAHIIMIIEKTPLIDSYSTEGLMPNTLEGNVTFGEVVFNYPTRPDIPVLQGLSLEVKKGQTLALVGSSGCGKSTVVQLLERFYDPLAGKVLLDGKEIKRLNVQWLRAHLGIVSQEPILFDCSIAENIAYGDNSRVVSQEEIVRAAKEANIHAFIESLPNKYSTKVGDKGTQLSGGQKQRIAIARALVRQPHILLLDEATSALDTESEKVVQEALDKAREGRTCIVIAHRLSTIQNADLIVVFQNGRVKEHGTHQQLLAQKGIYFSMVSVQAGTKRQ
Sequence of P-glycoprotein (P-gp; MDR1; ABCB1) (P08183 whole entry): as above
Sequence of OCT2 (O15244 whole entry): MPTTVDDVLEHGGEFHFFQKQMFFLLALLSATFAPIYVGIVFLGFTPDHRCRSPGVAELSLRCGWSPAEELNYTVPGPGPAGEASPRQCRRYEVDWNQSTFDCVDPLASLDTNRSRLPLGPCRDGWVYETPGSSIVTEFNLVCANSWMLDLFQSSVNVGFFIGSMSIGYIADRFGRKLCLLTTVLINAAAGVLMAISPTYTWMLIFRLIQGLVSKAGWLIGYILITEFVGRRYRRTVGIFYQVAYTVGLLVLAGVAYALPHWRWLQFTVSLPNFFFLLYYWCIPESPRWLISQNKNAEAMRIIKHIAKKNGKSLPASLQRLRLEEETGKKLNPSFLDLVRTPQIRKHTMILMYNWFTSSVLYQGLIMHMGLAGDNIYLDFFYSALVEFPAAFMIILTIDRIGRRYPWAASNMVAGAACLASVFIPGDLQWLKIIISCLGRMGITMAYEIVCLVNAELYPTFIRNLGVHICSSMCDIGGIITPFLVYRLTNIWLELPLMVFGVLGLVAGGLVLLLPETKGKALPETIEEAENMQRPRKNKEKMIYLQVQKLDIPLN

For the compound `Cn1cc(Nc2nccc(N3C[C@H]4CC[C@@H](C3)N4C(=O)[C@@H]3CC3(F)F)n2)cn1` [Brepocitinib, [(1S)-2,2-difluorocyclo-propyl][(1R,5S)-3-{2-[(1-methyl-1H-pyrazol-4-yl)amino]pyrimidin-4-yl}-3,8-diazabicyclo[3.2.1]oct-8-yl]methanone], in series [1], the “Inhibition of cytokine signaling pathways implicated in DM” value was “inhibited”. For the same compound, in series [2], the “IFN-I induced damage in endothelial cells” value is “almost completely prevented”. Besides, the “doses at which IP-10 (CXCL10) reduction separates from placebo” value with IP-10 (CXCL10) is at least 10 mg QD. Further, the “Primary efficacy outcome in Phase 2 studies” value in series [3] is “clinically meaningful and statistically significant results”. Moreover, the neoplastic findings result in the series on transgenic (Tg) mice is “No Brepocitinib-related neoplastic findings”. In addition, the “IL-12-induced IFNγ production” value with human PBMCs was “inhibits”. Also, in series [4] (in vivo), the “dose recovered in urine” value was at most 16%; the “effect of food (high-fat meal) on absorption” value was “does not have a clinically relevant effect on the extent of absorption”; the fraction absorbed entry is “approximately 100%”; the “increase of AUC(0-∞) and Cmax with dose” value was “approximately dose-proportional”. Further, in series [4] (in vivo), the “time to steady state” value is at most 8 days. Besides, in series [4] (not told, po), the “Permeability class according to the BCS criteria” value was “high-permeability compound”. For the same compound, the “fraction of unbound drug” value in [5] is reported as 0.609. Further, the “in vitro fraction metabolized” value in the series on CYP3A4/5 is recorded as 0.77. Also, the P-gp substrate status result in series [6] was “substrate”. The “In vitro inhibition of P-gp” value on P-gp is on record as “inhibition”. Besides, the “In vitro inhibition of OCT2” value at OCT2 is given as “inhibition”. For the same compound, the “AUC exposure margin, NOAEL to clinical exposure of 30 mg QD” value in the series on rats amounted to 54 fold. The “In vitro inhibition of MATE1” value in series [7] is “inhibition”. In addition, the “AUC exposure margin, NOAEL to clinical exposure of 30 mg QD” value in the series with cynomolgus monkeys is 7.8 fold.
